Laboratory results from patent publication US10071077B2, “Use of enoximone in the treatment of atopic immune-related disorders, in pharmaceutical composition as well as in pharmaceutical preparation” (BREAKTHROUGH MEDICAL RESEARCH B.V., priority 2014, dated 2018).

How the values were obtained:
[1] = tested on: HDM driven allergic airway inflammation; test: House dust mite (HDM) allergic airway inflammation model, treatment strategy 1 (allergy induction); format: in vivo, C57bl/6 mice
Experimental: (§1) To induce airway inflammation, mice were anaesthetized with isofluorane and treated intratracheally (i.t.) with 1-10 μg house dust mite (HDM; Greer Laboratories) allergen extract in 80 μL phosphate buffered saline (PBS) on day 0 or using PBS only. Ten days later, anesthetized mice were challenged with 1-10 μg HDM in 50 μL PBS intranasally (i.n.) for 5 consecutive days. Mice were sacrificed 24 hr after last challenge and broncho alveolar lavage was performed by flushing the lungs 3 times with 1 ml PBS containing Ethylenediaminetetraacetic acid (EDTA, Sigma-Aldrich).
Different treatment modalities were testes i.e. route and dose. Here we tested the oral versus intratracheal route (FIG. 1) and PBS versus enoximone in a HDM driven allergy model. Enoximone was precipitated from Perfan®. The precipitant was admitted with HDM solution and used as a suspension for intratracheal treatment doses 25 μg and 250 μg or it was used as a suspension admitted in PBS for oral treatment doses 250 μg or 2.5 mg. Mice underwent enoximone treatment only during challenge. Sensitization was performed with 1 μg HDM and challenge with 2.5-5 μg HDM. Twenty-four hours after the last challenge measurements were performed.
Optimal dose of 25 μg enoximone versus diluent (FIG. 5) was admitted with 5 μg HDM solution and used for intratracheal treatment or diluent (10% ethanol+40% glycerol+50% MQ) admitted with 5 μg HDM solution. Controls were treated with enoximone 25 μg admitted with PBS or diluent admitted with PBS. Mice underwent enoximone treatment only during challenge.
(A) Experimental HDM asthma design showing intratracheal sensitization (s) of 1 μg HDM or PBS as control and five intra-nasal challenges (c) with 2.5-5 μg HDM. (B) Quantification of flow cytometric analyses of the indicated populations of eosinophils in bronchoalveolar lavage (BAL) of PBS treated mice (black bars) and enoximone treated mice (white and greyscale bars). Results are expressed as means±SEM. (C) Quantification of flow cytometric analyses of ILC2 numbers in BAL. Results are expressed as means±SEM. Results represent data of one out of 2 experiments with 3-8 animals per group. Statistical evaluations were performed only between different treatments of groups. *p<0.05, **p<0.01).
(§2) (A) Experimental HDM asthma design showing intratracheal sensitization (s) of 1 μg HDM or PBS as control and intra nasal challenge (c) with 5 μg HDM. (B) Quantification of flow cytometric analyses of eosinophils in BAL of PBS treated mice (black bars) and enoximone treated mice (light grey bars). Results are expressed as means±SEM. (C) Quantification of flow cytometric analyses of neutrophils and (D) ILC2s in BAL. Results are expressed as means±SEM. n=4-8 animals per group. Statistical evaluations were performed only between different treatments of groups (*p<0.05 or **p<0.01).

[2] = tested on: established HDM allergic airway inflammation; test: Established HDM allergy model, treatment strategy 2; format: in vivo, C57bl/6 mice; settings: 25 μg enoximone admixed with 5 μg HDM
Experimental: as §1
C57bl/6 mice were sensitized with 10 μg HDM on day 0 and challenged with 5 μg HDM for 5 days on day 10-14. Then mice were treated with 5 μg HDM admixed with 25 μg enoximone or diluent for 5 days on days 15-19. 24 hr after last challenge measurements were performed.
Next, we attempted to determine whether enoximone is potent enough to suppress allergic inflammation when asthma is already fully established. Animals were challenged with an additional session of 5 challenges with HDM mimicking the situation in asthma patients. Asthma mice and PBS controls were then challenged again on five successive days by instilling a droplet of 50 μl PBS (PBS PBS dil), or HDM (5 μg) in 50 μl PBS (HDM HDM dil) or HDM (5 μg) in 50 μl PBS admixed with enoximone (25 μg) (HDM HDM enox)(FIG. 7A).
as §2, with “[…]” for “1 μg”, “HDM followed by challenge and treatment (ct).” for “HDM.”, “ILC2s, (D) CD3” for “neutrophils”, “(E) macrophages” for “(D) ILC2s”, “groups.” for “groups”

[3] = tested on: HDM allergic airway inflammation; test: HDM asthma model, lower enoximone treatment frequency; format: in vivo, mice
Experimental: as §1
Next we investigate if it is possible to lower the active enoximone treatment frequency when given it admixed to the HDM challenge solution (FIG. 2A). We compare the daily treatment frequency with once in two days (each other day) and once in three days. Mice treated with HDM admixed with diluent show clear eosinophilic airway inflammation (FIG. 2B). […] Moreover along this line also numbers of T-cells drop when treated with enoximone (FIG. 2B). […] Moreover the proportion of IL-4 producing T-cells is lower when enoximone is given less frequently than daily (FIG. 3).
(A) Experimental HDM asthma design showing intratracheal sensitisation (s) of 10 μg HDM or PBS as control and challenge (c) with 10 μg HDM intra nasal. The following schedules were used diluent (d) (5 μl) during challenge (for 5 days ddddd), enoximone (5 μl 5 mg/ml) during challenge (for 5 days eeeee), enoximone once in two days (edede) or (deded) and once in three days enoximone (edded). (B) Total cells and quantification of flow cytometric analyses of eosinophils and CD4 T-cells in BAL of PBS treated (black bars) and several frequencies of enoximone treated mice (gray bars). Results are expressed as means±SEM.
FIG. 3 Quantification of flow cytometric analyses of cytokine producing CD4 T-cells and proportion of IL-4 positive CD4 T-cells in BAL. Results are expressed as means±SEM. n=3-8 animals per group. Statistical evaluations were performed only between different treatments of groups (*p<0.05).

[4] = metabolised to a less active sulfoxide, excreted via the kidneys; cited from earlier work
[5] = oral or intratracheal enoximone

CSc1ccc(C(=O)c2[nH]c(=O)[nH]c2C)cc1 [enoximone, 1,3-dihydro-4-methyl-5-[4-(methylthio)benzoyl]-2H-imidazol-2-on]
neutrophil numbers in BAL ([1]; 25 μg enoximone intratracheally, FIG. 6C, same pattern as eosinophils): the same dynamic is observed
ILC2 cell numbers in BAL ([1]; 25 μg enoximone intratracheally, FIG. 6D, same pattern as eosinophils): the same dynamic is observed
numbers of BAL eosinophils, HDM/diluent treated mice compared to enoximone treated mice ([1]; 25 μg enoximone solution admitted to 5 μg HDM, intratracheally, FIG. 6B): significantly higher
allergic airway inflammation in control mice ([1]; PBS/enoximone (25 μg) control mice, no HDM): no signs of allergic airway inflammation
eosinophilic airway inflammation in control mice ([1]; PBS/enoximone control mice, no HDM): no eosinophilic airway inflammation
eosinophil numbers in BAL, HDM/PBS treated mice compared to enoximone treated mice ([1]; intratracheally (25 and 250 μg), treatment during challenge, FIG. 5B): significantly higher
DCs, PBS treated allergy mice compared to enoximone treated mice [1, 5]: significantly higher in the PBS treated allergy mice
Neutrophils, PBS treated allergy mice compared to enoximone treated mice [1, 5]: significantly higher in the PBS treated allergy mice
T-cells, PBS treated allergy mice compared to enoximone treated mice [1, 5]: significantly higher in the PBS treated allergy mice
ILC2 numbers in BAL ([1]; oral or intratracheal enoximone, FIG. 5C): reduced
numbers of ILC2s in BAL ([2]; days 15-19, FIG. 7C): significant reduction
numbers of T-cells in BAL ([2]; days 15-19, FIG. 7D): significant reduction
numbers of macrophages in BAL ([2]; days 15-19, FIG. 7E): significant reduction
eosinophil numbers in BAL ([2]; days 15-19, started after the first 5 HDM challenges, FIG. 7B): strong significant reductions
numbers of T-cells in BAL ([3]; 25 μg enoximone admixed with HDM challenge, FIG. 2B): drop
number of cytokine (IL-4, IL-5, IL-13, IL-17 and IFNγ) producing T-cells in BAL ([3]; 25 μg enoximone admixed with HDM challenge, FIG. 3): drop in number
eosinophilic inflammation ([3]; 25 μg enoximone admixed with HDM challenge, given every day, FIG. 2B): clear reduction
eosinophilic inflammation ([3]; 25 μg enoximone admixed with HDM challenge, once in three days, FIG. 2B): clear reduction
eosinophilic inflammation ([3]; 25 μg enoximone admixed with HDM challenge, once in two days (each other day), FIG. 2B): clear reduction
proportion of IL-4 producing T-cells ([3]; enoximone given less frequently than daily, FIG. 3): lower
half life [4]: approximately 4 hours
